Biological target: T1, human VR1 (Homo sapiens, UniProt Q8NER1)
T1 construct: expressed in transfected cells; host or cells: HEK293
Assay: Human VR1 [3H]RTX binding assay
Conditions: for Ki: [3H]RTX binding, HEK293 membranes; for inhibition at 1 µM / h Binding % I (1 μM): inhibition of [3H]RTX binding at 1 μM; for inhibition at 1 µM: read-out: h Binding % I (1 μM)
Protocol: Compounds of the present invention were tested for their ability to inhibit the binding of tritiated resiniferatoxin ([^3H] RTX) to human VR1 receptors in a [^3H] RTX binding assay, as previously described (Zhang, Sui-Po. Improved ligand binding assays for vanilloid receptors. PCT Int. Appl. (2002), WO 0233411 A1 20020425 AN 2002:315209; Grant, Elfrida R., Dubin, Adrienne E., Zhang, Sui-Po, Zivin, Robert A., Zhong, Zhong Simultaneous intracellular calcium and sodium flux imaging in human VR1-transfected human embryonic kidney cells: a method to resolve ionic dependence of VR1-mediated cell death. J. Pharmacol. Exp. ther., 2002, 300(1), 9-17.) HEK293 cells were transfected with human VR1 and washed with Hank's balanced Salt Solution, dissociated with cell dissociation buffer (Sigma), and then centrifuged at 1000× g for 5 min. Cell pellets were homogenized in cold 20 mM HEPES buffer (pH 7.4), containing 5.8 mM NaCl, 320 mM sucrose, 2 mM MgCl2, 0.75 CaCl2 and 5 mM KCl and centrifuged at 1000× g for 15 min. The resultant supernate was then centrifuged at 40000× g for 15 min. The pelleted membranes were stored in a freezer at −80 C.
Approximately 120 μg protein/ml from membranes were incubated with indicated concentrations of [^3H]RTX in 0.5 ml of the HEPES buffer (pH 7.4) containing 0.25 mg/mL fatty acid-free bovine serum albumin at 37 C for 60 min. After cooling the reaction mixture to 4 C, 0.1 mg (x-acid glycoprotein was added to each sample, which was incubated at 4 C for 15 min and then centrifuged at 18500× g for 15 min. The tip of the microcentrifuge tube containing the pellet was cut off. Bound radioactivity was quantified by scintillation counting. Non-specific binding was assessed in the presence of 200 nM unlabeled resiniferatoxin.
Data were calculated according to the equation: % inhibtion=(total binding−binding)*100/(total binding−non specific binding).
Ki values were calculated based on an average of duplicate measurements using a GraphPad Prism program.

T1 sequence (Q8NER1 whole entry): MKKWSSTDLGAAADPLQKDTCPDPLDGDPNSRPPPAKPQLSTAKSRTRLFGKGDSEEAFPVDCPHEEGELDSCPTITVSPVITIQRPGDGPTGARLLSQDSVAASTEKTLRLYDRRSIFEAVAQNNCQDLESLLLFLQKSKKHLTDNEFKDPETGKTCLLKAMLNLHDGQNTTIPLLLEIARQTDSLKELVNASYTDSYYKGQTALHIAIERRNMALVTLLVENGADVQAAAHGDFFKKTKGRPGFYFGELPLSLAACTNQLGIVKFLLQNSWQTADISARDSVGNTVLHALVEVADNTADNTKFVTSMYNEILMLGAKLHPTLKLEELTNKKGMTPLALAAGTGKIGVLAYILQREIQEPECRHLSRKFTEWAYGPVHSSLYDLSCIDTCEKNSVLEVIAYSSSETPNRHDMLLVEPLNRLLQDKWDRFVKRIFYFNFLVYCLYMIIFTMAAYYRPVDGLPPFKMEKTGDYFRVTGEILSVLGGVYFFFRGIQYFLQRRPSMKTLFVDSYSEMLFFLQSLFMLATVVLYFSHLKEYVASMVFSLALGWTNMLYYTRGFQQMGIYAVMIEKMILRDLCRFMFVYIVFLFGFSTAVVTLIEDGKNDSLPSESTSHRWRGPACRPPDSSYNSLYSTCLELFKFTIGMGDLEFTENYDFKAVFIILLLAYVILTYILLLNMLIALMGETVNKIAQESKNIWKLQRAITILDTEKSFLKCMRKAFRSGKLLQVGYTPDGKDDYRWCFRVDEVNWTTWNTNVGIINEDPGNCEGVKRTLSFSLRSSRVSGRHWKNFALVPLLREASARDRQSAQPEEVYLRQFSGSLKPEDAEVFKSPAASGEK

Row | Structure (SMILES) | Ki [nM] | inhibition at 1 µM [%] | h Binding % I (1 μM) [%]
1 | CC(C)(C)c1ccc(CCC(=O)Nc2ccc(-c3ncccn3)cc2)cc1 [Cpd 112] | 216 | 68 | –
2 | CC(C)(C)c1ccc(CCC(=O)Nc2cccc(-c3cncnc3)c2)cc1 [Cpd 117] | – | – | 1
3 | COc1ccc(-c2cccc(NC(=O)CCc3ccc(C(C)(C)C)cc3)c2)cn1 [Cpd 119] | – | – | 1
4 | COc1ccc(-c2ccc(NC(=O)CCc3ccc(C(C)(C)C)cc3)cc2)cn1 [Cpd 121] | – | – | 36
5 | CC(C)(C)c1ccc(CCC(=O)Nc2ccc(-c3cccc4[nH]ccc34)cc2)cc1 [Cpd 122] | 335 | 64 | –
6 | CC(C)(C)c1ccc(CCC(=O)Nc2ccc(-c3ccc4cc[nH]c4c3)cc2)cc1 [Cpd 123] | – | – | 39
7 | CC(C)(C)c1ccc(CCC(=O)Nc2ccc(-c3cccc(C(N)=O)c3)cn2)cc1 [Cpd 124] | – | – | 1
8 | CC(=O)Nc1cccc(-c2ccc(NC(=O)CCc3ccc(C(C)(C)C)cc3)nc2)c1 [Cpd 125] | – | – | 1
9 | CC(C)(C)c1ccc(CCC(=O)Nc2cccc(-c3cccc(O)c3)n2)cc1 [Cpd 126] | – | – | 9
10 | CC(C)(C)c1ccc(CCC(=O)Nc2ccc(-c3cccc(C(N)=O)c3)nc2)cc1 [Cpd 127] | – | – | 16
11 | CC(C)(C)c1ccc(CCC(=O)Nc2ncc(-c3cccc(C(N)=O)c3)cn2)cc1 [Cpd 130] | – | – | 1
12 | CC(C)(C)c1ccc(CCC(=O)Nc2cnc(-c3cccc(C(N)=O)c3)cn2)cc1 [Cpd 131] | – | – | 1
13 | CC(C)(C)c1ccc(CCC(=O)Nc2ccc(-c3cccc(CO)c3)nc2)cc1 [Cpd 134] | – | – | 25
14 | CC(C)(C)c1ccc(CCC(=O)Nc2ccc(-c3ccncc3)cc2C(=O)O)cc1 [Cpd 139] | – | – | 1
15 | CC(C)(C)c1ccc(CCC(=O)Nc2ccc(-c3ccncc3)cc2CO)cc1 [Cpd 140] | – | – | 1
16 | CC(C)(C)c1ccc(CCC(=O)Nc2ccc(-c3ccncc3)c(C(=O)O)c2)cc1 [Cpd 141] | – | – | 1
17 | O=C(CCc1ccc(C(F)(F)F)cc1)Nc1ccc(-c2ccccc2O)nc1 [Cpd 146] | – | – | 8
18 | CC(=O)Nc1cccc(-c2ccc(NC(=O)CCc3ccc(C(C)(C)C)cc3)c3ccncc23)c1 [Cpd 154] | – | – | 15
19 | CC(C)(C)c1ccc(CCC(=O)Nc2ccc(-c3cccc(O)c3)c3cnccc23)cc1 [Cpd 155] | – | – | 89
20 | CC(C)(C)c1ccc(CCC(=O)Nc2ccc(-c3ccncc3)c3cnccc23)cc1 [Cpd 156] | – | – | 33
21 | O=C(CCc1ccc(C(F)(F)F)cc1)Nc1ccc(-c2cccc(O)c2)c2cnccc12 [Cpd 158] | – | – | 77
22 | O=C(CCc1ccc(C(F)(F)F)cc1)Nc1ccc(-c2ccncc2)c2cnccc12 [Cpd 159] | – | – | 1
23 | CC(C)(C)c1ccc(CCC(=O)Nc2ccc(-c3c[nH]cn3)cc2)cc1 [Cpd 192] | – | – | 50
24 | CC(C)(C)c1ccc(CCC(=O)Nc2ccc(-c3cnco3)cc2)cc1 [Cpd 193] | – | – | 49
25 | Cc1cc(C)n(-c2ccc(NC(=O)CCc3ccc(C(C)(C)C)cc3)cc2)n1 [Cpd 196] | – | – | 76
26 | CC(C)(C)c1ccc(CCC(=O)Nc2ccc(-n3cnc(Cl)c3Cl)cc2)cc1 [Cpd 200] | – | – | 100
27 | CC(C)(C)c1ccc(CCC(=O)Nc2ccc(-n3ccnc3)cc2)cc1 [Cpd 261] | 311 | – | –
